# Values of other authors in patent US6689399B1, “Transdermal delivery of an anti-inflammatory composition” (priority 2000, dated 2004).
# Experiments:
# [1] = four trials, 0.075% capsaicin cream four times daily for 4-8 weeks; placebo 49%
# [2] = three trials, capsaicin cream (two 0.025%, one 0.075%) four times daily for four weeks; placebo 16%
# [3] = single trial, 0.075% capsaicin cream three or four times daily for three weeks; 4/16; placebo 6%
# [4] = single trial, 0.075% capsaicin cream four times daily for six weeks; 5/13; placebo 10%
# [5] = four trials, 0.025% capsaicin cream four times daily for 6-8 weeks; placebo 42%
smiles,measurement,setting,value
"COc1cc(CNC(=O)CCCC/C=C/C(C)C)ccc1O [capsaicin, trans-8-methyl-N-vanillyl-6-nonenamide]","patients responding to capsaicin, diabetic neuropathy",[1],73%
same,"patients responding to capsaicin, osteoarthritis",[2],45%
same,"patients reporting pain relief, postherpetic neuralgia",[3],25%
same,"patients reporting pain relief, postmastectomy pain",[4],38%
same,"patients responding to capsaicin, psoriasis",[5],68%
